Source: patent US11332470B2, “CXCR4 inhibitors and uses thereof” (X4 Pharmaceuticals, Inc., priority 2016, dated 2022)

Experiments:
[1] = biological target: T1, CXCR4 (U87.CXCR4 cells) (Homo sapiens, UniProt P61073); assay: Intracellular CXCL-12-induced calcium mobilization assay (FLIPR); assay type: cell-based; conditions: CXCL-12 25-50 ng/mL, read-out: IC50 CXCL-12 Ca2+ flux U87.CXCR4+
T1 construct: expressed in transfected cells; host or cells: U87 (U87.CXCR4)
Method: Intracellular CXCL-12-Induced Calcium Mobilization Assay
Intracellular calcium mobilization induced by chemokines or chemokine-derived peptides were evaluated using a calcium responsive fluorescent probe and a FLIPR system. The CXCR-4 transfected U87 cell line (U87.CXCR4) cells were seeded in gelatine-coated black-wall 96-well plates at 20,000 cells per well and incubated for 12 hours. Cells were then loaded with the fluorescent calcium probe Fluo-2 acetoxymethyl at 4 μM final concentration in assay buffer (Hanks' balanced salt solution with 20 mM HEPES buffer and 0.2% bovine serum albumin, pH 7.4) for 45 min at 37° C. The intracellular calcium mobilization induced by the CXCL-12 (25-50 ng/mL) was then measured at 37° C. by monitoring the fluorescence as a function of time in all the wells simultaneously using a fluorometric imaging plate reader (FLIPR Tetra, Molecular Devices).

[2] = biological target: T2, CXCR4 (Jurkat cells expressing CXCR4) (Homo sapiens, UniProt P61073); assay: Chemokine (CXCL12-AF647) binding inhibition assay; conditions: CXCL12-AF647 25 ng/mL, read-out: IC50 CXCL-12 binding Jurkat
T2 construct: Jurkat cells expressing CXCR4; endogenous in cells; host or cells: Jurkat
Method: Chemokine (CXCL12-AF647) Binding Inhibition Assay
Jurkat cells expressing CXCR4 were washed once with assay buffer (Hanks' balanced salt solution with 20 mM HEPES buffer and 0.2% bovine serum albumin, pH 7.4) and then incubated for 15 min at room temperature with the test compounds diluted in assay buffer at dose-dependent concentrations. Subsequently, CXCL12-AF647 (25 ng/mL) was added to the compound-incubated cells. The cells were incubated for 30 min at room temperature. Thereafter, the cells were washed twice in assay buffer, fixed in 1% paraformaldehyde in PBS, and analyzed on the FL4 channel of a FACSCalibur flow cytometer equipped with a 635-nm red diode laser (Becton Dickinson, San Jose, Calif., USA).
The percentages of inhibition of CXCL12-AF647 binding were calculated according to the formula: [1−((MFI−MFINC)/(MFIPC−MFINC))]×100 where MFI is the mean fluorescence intensity of the cells incubated with CXCL12-AF647 in the presence of the inhibitor, MFINC is the mean fluorescence intensity measured in the negative control (i.e., autofluorescence of unlabeled cells), and MFIPC is the mean fluorescence intensity of the positive control (i.e., cells exposed to CXCL12-AF647 alone).

[3] = in vitro; conditions: human, Caco-2, pH 7.4
Method: The goal of this assay was to evaluate the intestinal absorption potential of drug candidates using Caco-2 cell lines.
1. Prewarm Prewarm HBSS Buffer in 37° C. water bath
2. Sonicate Take compounds from −20° C., sonicate for a few minutes (no less than 1 minute)
• Donor solution buffer: For A-to-B Direction: HBSS buffer with 0.3% DMSO and 5 μM LY: add 150 μL DMSO and 50 μL LY (5 mM) into 50 ml HBSS buffer (pH 7.4). HBSS buffer with 0.1% DMSO and 5 μM LY: add 50 μL DMSO and 50 μL LY (5 mM) into 50 mL HBSS buffer (pH 7.4). For B-to-A Direction: HBSS buffer with 0.3% DMSO: add 150 μL DMSO into 50 ml HBSS buffer (pH 7.4). HBSS buffer with 0.1% DMSO: add 50 μL DMSO into 50 ml HBSS buffer (pH 7.4). Receiver Solution Buffer: For A-to-B Direction: Prepare HBSS buffer with 0.4% DMSO: add 200 μL DMSO into 50 ml HBSS buffer (pH 7.4). For B-to-A Direction: Prepare HBSS buffer with 0.4% DMSO and 5 μM LY: add 200 μL DMSO and 50 μL LY (5 mM) into 50 ml HBSS buffer (pH 7.4).
4. Measure TEER Take cell culture plate out of incubator, wash the cell monolayers with HBSS buffer, and then measure TEER values at Rm temperature. 5. Centrifuge Centrifuge the compound solution (from step 3) at 4000 rpm for 5 min before loading to donor chambers. 6. Dosing Add solution based on the volumes listed in the following table (make sure to take extra 100 μL of donor sample for TO as Backup).
7. Apical LYT0 samples To determine LY concentration in the apical chamber, take 100 μL sample from apical chambers into an opaque plate for LYT0. 8. Prewarm Prewarm apical and basolateral plates at 37° C. for about 5 min, then begin transport by placing the apical plate onto basolateral plate. 9. Incubation Keep the plates in incubator at 37° C. for 90 min. 10.
Prepare Working Solution in MeOH/H2O (1:1)
• Prepare 1×solution: 3 μL (20×)+57 μL of 0.4% DMSO HBSS+60 μL ACN with IS (Osalmid or Imipramine)−120 μL (1×) 11. Transport termination Separate the apical plate from the basolateral plate after 90-min incubation. 12. Measure LY Take 100 μL samples from basolateral plate to an opaque plate as LYT90. 13. Measure LY concentrations for LYT0 and LYT90 by Fluorometer (at excitation of 485 nm/emission of 535 nm). 14.
Study details: Test concentration 10 μM
Test systems: Caco-2/HBSS solution
Incubation conditions: 0, 90 min at 37° C.
Sample size: Duplicates (n=2)
Bioanalytical method: LC-MS/MS
For Millicell-24 Cell Culture Plates: surface area of the membrane=0.7 cm^2, VA=0.8 mL (A-to-B) or 0.4 mL (B-to-A)
The compound numbers correspond to the compound numbers in Table 1.

T2 sequence (P61073 whole entry): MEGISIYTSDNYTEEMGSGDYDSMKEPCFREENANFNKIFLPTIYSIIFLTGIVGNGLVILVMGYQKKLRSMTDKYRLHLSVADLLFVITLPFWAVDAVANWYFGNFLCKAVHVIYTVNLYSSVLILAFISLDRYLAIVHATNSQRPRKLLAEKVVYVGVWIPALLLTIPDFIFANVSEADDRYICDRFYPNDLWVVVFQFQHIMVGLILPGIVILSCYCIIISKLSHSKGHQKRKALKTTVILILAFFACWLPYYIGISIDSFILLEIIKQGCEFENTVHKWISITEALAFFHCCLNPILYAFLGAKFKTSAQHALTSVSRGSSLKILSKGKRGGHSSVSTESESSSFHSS
T1 sequence (P61073 whole entry): as above

Structure (SMILES) | IC50 [1] [nM] | IC50 [2] [nM] | Papp A→B at 90 min, 10 μM [3] [×10⁻⁶ cm/s] | Papp B→A at 90 min, 10 μM [3] [×10⁻⁶ cm/s] | efflux ratio at 90 min, 10 μM [3]
CN1CCN(c2c(CN3CCCC3c3ncc[nH]3)nc3ccccn23)CC1 (stereo not shown) [Compound I-68] | ≥ 1000 | 100 to 1000 | 0.1 to 10 | 10 to 30 | 0.1 to 10
CN1CCN(c2c(CN3CCCC3c3nccn3C)nc3ccccn23)CC1 (stereo not shown) [Compound I-69] | 0.01 to 100 | 0.01 to 100 | 0.1 to 10 | 10 to 30 | 10 to 30
c1ccc(C2CCCN2Cc2ncccc2-n2ccnc2)nc1 (stereo not shown) [Compound I-75] | ≥ 1000 | 100 to 1000 | 10 to 30 | > 30 | 0.1 to 10
CN1CCN(c2c(CN3CCCC3c3ccc(F)cn3)nc3ccccn23)CC1 (stereo not shown) [Compound I-76] | 0.01 to 100 | 0.01 to 100 | 10 to 30 | 0.1 to 10 | 0.1 to 10
CN1CC=C(c2c(CN3CCCC3c3ccccn3)nc3ccccn23)CC1 (stereo not shown) [Compound I-79] | 0.01 to 100 | 0.01 to 100 | 0.1 to 10 | > 30 | 0.1 to 10
c1ccc(C2CCCN2Cc2nc3ccccn3c2-c2ccncc2)nc1 (stereo not shown) [Compound I-80] | 100 to 1000 | 100 to 1000 | 10 to 30 | > 30 | 0.1 to 10
N#CCCc1c(CN2CCCC2c2ccccn2)nc2ccccn12 (stereo not shown) [Compound I-82] | ≥ 1000 | 100 to 1000 | 10 to 30 | > 30 | 0.1 to 10
Cc1cccnc1C1CCCN1Cc1cn2c(CCC#N)cccc2n1 (stereo not shown) [Compound I-83] | ≥ 1000 | 100 to 1000 | 0.1 to 10 | > 30 | 0.1 to 10
N#CCCc1cccc2nc(CN3CCCC3c3ccccn3)cn12 (stereo not shown) [Compound I-84] | ≥ 1000 | ≥ 1000 | 0.1 to 10 | > 30 | 0.1 to 10
CN1CCN(c2c(CN3CCCC3c3ccccn3)nc3ccccn23)CC1=O (stereo not shown) [Compound I-85] | ≥ 1000 | 100 to 1000 | 0.1 to 10 | > 30 | 0.1 to 10
O=C1CN(c2c(CN3CCCC3c3ccccn3)nc3ccccn23)CCN1 (stereo not shown) [Compound I-86] | ≥ 1000 | ≥ 1000 | 0.1 to 10 | 10 to 30 | 10 to 30
Cc1cccnc1C1CCCN1Cc1nccn1Cc1ccncc1 (stereo not shown) [Compound I-87] | ≥ 1000 | 100 to 1000 | 10 to 30 | 10 to 30 | 0.1 to 10
Cc1cccnc1C1CCCN1Cc1nccn1Cc1cccnc1 (stereo not shown) [Compound I-88] | ≥ 1000 | 100 to 1000 | 10 to 30 | 10 to 30 | 0.1 to 10
Cc1cccnc1C1CCCN1Cc1nccn1Cc1ccccn1 (stereo not shown) [Compound I-89] | ≥ 1000 | 100 to 1000 | 10 to 30 | > 30 | 0.1 to 10
c1ccc(C2CCCN2Cc2nc3ccccn3c2N2CCOCC2)nc1 (stereo not shown) [Compound I-91] | ≥ 1000 | 100 to 1000 | > 30 | > 30 | 0.1 to 10
Cc1cccnc1CN1CCCC1c1nccn1CC1CCN(C)CC1 (stereo not shown) [Compound I-92] | 100 to 1000 | 0.01 to 100 | 0.1 to 10 | 10 to 30 | 0.1 to 10
c1ccc(OCc2c(CN3CCCC3c3ccccn3)nc3ccccn23)nc1 (stereo not shown) [Compound I-94] | ≥ 1000 | ≥ 1000 | 10 to 30 | > 30 | 0.1 to 10
c1ccc(N2CCN(c3c(CN4CCCC4c4ccccn4)nc4ccccn34)CC2)cc1 (stereo not shown) [Compound I-96] | ≥ 1000 | 100 to 1000 | 10 to 30 | 10 to 30 | 0.1 to 10
c1ccc(C2CCCN2Cc2nc3ccccn3c2N2CCN(c3ccccn3)CC2)nc1 (stereo not shown) [Compound I-97] | 100 to 1000 | 0.01 to 100 | > 30 | > 30 | 0.1 to 10
FC(F)(F)CN1CCN(c2c(CN3CCCC3c3ccccn3)nc3ccccn23)CC1 (stereo not shown) [Compound I-98] | 100 to 1000 | 0.01 to 100 | > 30 | > 30 | 0.1 to 10
Cc1cccnc1C1CCCN1Cc1cn2c(C3OCC(N(C)C)CO3)cccc2n1 (stereo not shown) [Compound I-99] | 100 to 1000 | 0.01 to 100 | 0.1 to 10 | > 30 | > 30
CN1CCN(c2c(C3CCCN3Cc3ccccn3)nc3ccccn23)CC1 (stereo not shown) [Compound I-101] | 100 to 1000 | 0.01 to 100 | 0.1 to 10 | > 30 | 0.1 to 10
CN1CCN(c2c(C3CCCN3Cc3ncccn3)nc3ccccn23)CC1 (stereo not shown) [Compound I-102] | ≥ 1000 | 100 to 1000 | 0.1 to 10 | > 30 | > 30
Cc1cccnc1CN1CCCC1c1cn2c(N3CCN(C)CC3)cccc2n1 (stereo not shown) [Compound I-103] | 0.01 to 100 | 0.01 to 100 | 0.1 to 10 | > 30 | 0.1 to 10
CN1CCN(c2cccc3nc(C4CCCN4Cc4ccccn4)[nH]c23)CC1 (stereo not shown) [Compound I-104] | 100 to 1000 | 0.01 to 100 | 0.1 to 10 | > 30 | 0.1 to 10
CN1CCN(c2cccc3nc(C4CCCN4Cc4ncccn4)[nH]c23)CC1 (stereo not shown) [Compound I-105] | ≥ 1000 | ≥ 1000 | 0.1 to 10 | > 30 | 0.1 to 10
